Literature values as cited in US20060134230A1, “Weight loss composition and formulation” (priority 2004, published 2006).

Tests used:
[1] = system: oxidative phosphorylation
lipases = details: in vivo
fatty acid synthase = fatty acid synthase (Homo sapiens, UniProt P49327)
3T3-L1 = 3T3-L1 preadipocyte
[2] = system: glucose transport at the brush border of the small intestine; details: in vivo

Sequence of fatty acid synthase (P49327 whole entry, species assumed): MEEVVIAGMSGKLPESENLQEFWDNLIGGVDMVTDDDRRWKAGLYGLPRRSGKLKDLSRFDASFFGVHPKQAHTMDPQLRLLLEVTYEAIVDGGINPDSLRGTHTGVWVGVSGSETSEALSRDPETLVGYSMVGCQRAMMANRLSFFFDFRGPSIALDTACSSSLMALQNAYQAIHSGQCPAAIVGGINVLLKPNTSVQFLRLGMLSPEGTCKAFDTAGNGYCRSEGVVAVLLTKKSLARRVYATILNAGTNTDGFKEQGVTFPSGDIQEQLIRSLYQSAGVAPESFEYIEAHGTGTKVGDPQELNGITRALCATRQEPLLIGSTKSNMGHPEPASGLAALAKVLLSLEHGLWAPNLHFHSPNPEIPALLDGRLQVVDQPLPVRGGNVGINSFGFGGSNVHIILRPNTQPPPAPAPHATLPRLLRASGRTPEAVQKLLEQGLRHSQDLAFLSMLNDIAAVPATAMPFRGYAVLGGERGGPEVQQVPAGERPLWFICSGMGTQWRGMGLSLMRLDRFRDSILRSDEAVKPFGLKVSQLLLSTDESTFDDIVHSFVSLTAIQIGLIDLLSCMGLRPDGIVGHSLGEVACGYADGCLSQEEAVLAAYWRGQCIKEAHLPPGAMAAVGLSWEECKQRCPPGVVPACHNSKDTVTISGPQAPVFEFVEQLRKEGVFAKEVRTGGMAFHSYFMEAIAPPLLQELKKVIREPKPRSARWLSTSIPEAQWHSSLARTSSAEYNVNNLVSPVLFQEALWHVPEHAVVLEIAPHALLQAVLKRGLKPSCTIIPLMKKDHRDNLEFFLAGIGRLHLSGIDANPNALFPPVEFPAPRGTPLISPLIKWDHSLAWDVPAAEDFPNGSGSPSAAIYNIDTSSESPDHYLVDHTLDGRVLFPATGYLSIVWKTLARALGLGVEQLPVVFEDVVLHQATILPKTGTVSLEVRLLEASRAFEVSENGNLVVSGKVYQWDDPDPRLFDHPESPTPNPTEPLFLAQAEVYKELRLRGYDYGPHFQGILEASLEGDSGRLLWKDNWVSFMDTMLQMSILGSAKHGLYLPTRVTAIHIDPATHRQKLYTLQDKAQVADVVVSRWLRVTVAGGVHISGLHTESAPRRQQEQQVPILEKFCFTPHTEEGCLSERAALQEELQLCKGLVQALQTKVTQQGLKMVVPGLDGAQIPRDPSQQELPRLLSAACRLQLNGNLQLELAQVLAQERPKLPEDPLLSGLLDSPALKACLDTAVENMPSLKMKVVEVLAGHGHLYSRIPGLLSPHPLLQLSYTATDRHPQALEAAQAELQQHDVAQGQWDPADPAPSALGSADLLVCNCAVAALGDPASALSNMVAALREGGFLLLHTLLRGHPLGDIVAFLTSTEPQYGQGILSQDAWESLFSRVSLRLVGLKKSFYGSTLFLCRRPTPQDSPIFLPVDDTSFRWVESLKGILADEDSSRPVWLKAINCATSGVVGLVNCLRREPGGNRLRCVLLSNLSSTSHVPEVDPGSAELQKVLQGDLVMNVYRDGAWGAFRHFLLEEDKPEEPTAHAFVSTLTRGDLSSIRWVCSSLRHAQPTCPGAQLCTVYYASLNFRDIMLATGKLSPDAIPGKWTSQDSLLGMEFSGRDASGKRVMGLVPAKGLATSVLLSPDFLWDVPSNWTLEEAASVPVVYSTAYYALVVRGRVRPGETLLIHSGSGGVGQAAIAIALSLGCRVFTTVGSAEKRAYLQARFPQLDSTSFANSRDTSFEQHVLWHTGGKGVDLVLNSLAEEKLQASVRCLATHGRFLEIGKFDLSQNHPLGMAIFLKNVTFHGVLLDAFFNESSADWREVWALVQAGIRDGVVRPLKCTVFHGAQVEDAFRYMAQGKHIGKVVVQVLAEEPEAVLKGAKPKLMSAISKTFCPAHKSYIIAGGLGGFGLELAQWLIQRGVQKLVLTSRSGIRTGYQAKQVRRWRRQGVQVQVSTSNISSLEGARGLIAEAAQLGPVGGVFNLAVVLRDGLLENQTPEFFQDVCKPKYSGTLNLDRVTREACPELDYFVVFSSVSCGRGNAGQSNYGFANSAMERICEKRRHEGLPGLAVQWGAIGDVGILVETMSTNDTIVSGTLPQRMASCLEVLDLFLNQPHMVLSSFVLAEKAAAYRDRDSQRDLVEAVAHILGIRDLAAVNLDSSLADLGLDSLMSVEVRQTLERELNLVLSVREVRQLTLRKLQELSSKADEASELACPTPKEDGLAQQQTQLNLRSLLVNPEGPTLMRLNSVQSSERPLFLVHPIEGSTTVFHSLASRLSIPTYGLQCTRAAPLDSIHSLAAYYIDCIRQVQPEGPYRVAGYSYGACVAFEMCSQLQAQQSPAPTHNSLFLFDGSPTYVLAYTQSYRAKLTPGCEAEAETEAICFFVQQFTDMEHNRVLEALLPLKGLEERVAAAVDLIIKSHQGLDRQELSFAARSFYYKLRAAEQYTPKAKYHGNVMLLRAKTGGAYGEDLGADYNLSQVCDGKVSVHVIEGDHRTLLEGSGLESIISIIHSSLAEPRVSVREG

C=CC(C)(C)c1cc2cc3c(cc2oc1=O)O[C@H](C(C)(C)O)C3 [chalepin]
oxidative uncoupling [1]: act as oxidative uncouplers

CC(C)(O)[C@@H]1Cc2cc3ccc(=O)oc3cc2O1 [marmesin]
oxidative uncoupling [1]: act as oxidative uncouplers

CCCCCCCCCCC[C@@H](C[C@@H]1OC(=O)[C@H]1CCCCCC)OC(=O)[C@H](CC(C)C)NC=O [Xenical]
dietary fat blocked from being absorbed (lipases): about 30%

CC(C)=CCOc1c2occc2cc2ccc(=O)oc12 [imperatorin]
oxidative uncoupling [1]: act as oxidative uncouplers

Cc1cc(O)c2c(c1)C(=O)c1cc(O)cc(O)c1C2=O [emodin, 3-methyl-1,6,8-trihydroxy-anthraquinone]
inhibition effect on fatty acid synthase (fatty acid synthase): inhibition effect on fatty acid synthase, which is dose dependent | inhibition of differentiation of 3T3-L1 (3T3-L1): inhibition of differentiation of 3T3-L1

CC1(C)CC[C@]2(C(=O)O)CC[C@]3(C)C(=CC[C@@H]4[C@@]5(C)CC[C@H](O)C(C)(C)[C@@H]5CC[C@]43C)[C@@H]2C1 [oleanic acid]
glucose transport at the brush border of the small intestine [2]: inhibiting glucose transport at the brush border of the small intestine | transfer of glucose from the stomach to the small intestine [2]: suppress the transfer of glucose from the stomach to the small intestine
